# Laboratory results: ChEMBL document CHEMBL5370585, “Exploration and Biological Evaluation of 1,3-Diamino-7H-pyrrol[3,2-f]quinazoline Derivatives as Dihydrofolate Reductase Inhibitors” (J Med Chem, 2023)
# What was measured:
# Staphylococcus aureus [1] = assay: Antibacterial activity against Staphylococcus aureus ATCC 29213 incubated for 16 to 18 hrs by CLSI based broth dilution method; type: functional; details: time 16-18 hrs
# Staphylococcus aureus [2] = assay: Antibacterial activity against methicillin-resistant Staphylococcus aureus ATCC 43300 incubated for 16 to 18 hrs by CLSI based broth dilution method; type: functional; details: time 16-18 hrs
# [3] = tested on: Staphylococcus epidermidis; assay: Antibacterial activity against Staphylococcus epidermidis ATCC 12228 incubated for 16 to 18 hrs by CLSI based broth dilution method; type: functional; details: time 16-18 hrs
# Acinetobacter baumannii = assay: Antibacterial activity against Acinetobacter baumannii ATCC 19606 incubated for 16 to 18 hrs by CLSI based broth dilution method; type: functional; details: time 16-18 hrs
# Enterococcus faecalis = assay: Antibacterial activity against Enterococcus faecalis ATCC 29212 incubated for 16 to 18 hrs by CLSI based broth dilution method; type: functional; details: time 16-18 hrs
# Escherichia coli = assay: Antibacterial activity against Escherichia coli ATCC 25922 incubated for 16 to 18 hrs by CLSI based broth dilution method; type: functional; details: time 16-18 hrs
# [4] = target: T1, Dihydrofolate reductase (Homo sapiens) (UniProt P00374); assay: Inhibition of human DHFR at 1 uM incubated for 10 mins in presence of NADPH by colorimetry based analysis relative to control
# T1 sequence (whole entry): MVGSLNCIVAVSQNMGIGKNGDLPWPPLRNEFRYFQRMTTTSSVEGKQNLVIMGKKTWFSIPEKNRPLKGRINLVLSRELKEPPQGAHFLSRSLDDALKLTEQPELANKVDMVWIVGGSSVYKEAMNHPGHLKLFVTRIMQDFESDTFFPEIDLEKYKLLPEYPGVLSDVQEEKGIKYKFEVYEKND
# MCF7 = assay: Cytotoxicity against human MCF7 cells measured after 72 hrs by MTT assay; type: functional, cell-based; details: MCF7, 72 h
# HGC-27 = assay: Cytotoxicity against human HGC-27 cells measured after 72 hrs by MTT assay; type: functional, cell-based; details: HGC-27, 72 h
# HCT-116 = assay: Cytotoxicity against human HCT-116 cells measured after 72 hrs by MTT assay; type: functional, cell-based; details: HCT-116, 72 h
# HepG2 = assay: Cytotoxicity against human HepG2 cells measured after 72 hrs by MTT assay; type: functional, cell-based; details: HepG2, 72 h
# EMT6 [5] = assay: Antitumor activity against mouse EMT6 cells xenografted in ip dosed BALB/c mouse model assessed as delay in tumor progression administered every 3 days for 14 consecutive days; type: functional, organism-based; details: time 14.0 day
# [6] = Toxicity in BALB/c mouse xenografted with mouse EMT6 cells at 2.5 mg/kg, ip administered every 3 days for 14 consecutive days; type: organism-based; details: in vivo, 336 h, time 14 day
# [7] = Toxicity in BALB/c mouse xenografted with mouse EMT6 cells assessed as effect on body weight at 2.5 mg/kg, ip measured on day 1 (reference value: 18.5 +/-0.5g); type: organism-based; details: in vivo, 24 h, time 1 day
# [8] = Toxicity in BALB/c mouse xenografted with mouse EMT6 cells assessed as effect on body weight at 5 mg/kg, ip measured on day 1 (reference value: 18.5 +/-0.5g); type: organism-based; details: in vivo, 24 h, time 1 day
# [9] = Toxicity in BALB/c mouse xenografted with mouse EMT6 cells assessed as effect on body weight at 2.5 mg/kg, ip measured on day 14 (reference value: 21.6 +/-0.6g); type: organism-based; details: in vivo, 336 h, time 14 day
# [10] = Toxicity in BALB/c mouse xenografted with mouse EMT6 cells assessed as effect on body weight at 5 mg/kg, ip measured on day 14 (reference value: 21.6 +/-0.6g); type: organism-based; details: in vivo, 336 h, time 14 day
# EMT6 [11] = assay: Antitumor activity against mouse EMT6 cells xenografted in BALB/c mouse model assessed as tumor weight at 2.5 mg/kg,ip administered every 3 days for 14 consecutive days (reference value: 1.53 +/-0.26g); type: functional; details: time 14 day
# EMT6 [12] = assay: Antitumor activity against mouse EMT6 cells xenografted in BALB/c mouse model assessed as tumor weight at 5 mg/kg,ip administered every 3 days for 14 consecutive days (reference value: 1.53 +/-0.26g); type: functional; details: time 14 day
# EMT6 [13] = assay: Antitumor activity against mouse EMT6 cells xenografted in BALB/c mouse model assessed as tumor growth inhibition at 2.5 mg/kg,ip administered every 3 days for 14 consecutive days relative to control; type: functional; parameters: scale not given: the % may be the effect or the level left; details: time 14 day
# EMT6 [14] = assay: Antitumor activity against mouse EMT6 cells xenografted in BALB/c mouse model assessed as tumor growth inhibition at 5 mg/kg,ip administered every 3 days for 14 consecutive days relative to control; type: functional; parameters: scale not given: the % may be the effect or the level left; details: time 14 day
# [15] = Metabolic stability in mouse liver microsomes assessed as half life at 1 uM measured upto 60 mins in presence of NADPH by LC-MS/MS analysis; type: ADME, Microsome
# [16] = Metabolic stability in mouse liver microsomes assessed as intrinsic clearance at 1 uM measured upto 60 mins in presence of NADPH by LC-MS/MS analysis; type: ADME, Microsome; details: read-out: CLH
# [17] = Metabolic stability in mouse liver microsomes assessed as hepatic clearance at 1 uM measured upto 60 mins in presence of NADPH by LC-MS/MS analysis; type: ADME, Microsome; details: 1 h
# [18] = Stability in mouse plasma assessed as parent compound remaining at 1 ug/ml measured after 10 mins by LC-MS/MS analysis; type: ADME, cell-free; details: at 1 µg/mL, read-out: Stability
# [19] = Stability in mouse plasma assessed as parent compound remaining at 1 ug/ml measured after 20 mins by LC-MS/MS analysis; type: ADME, cell-free; details: at 1 µg/mL, read-out: Stability
# [20] = Stability in mouse plasma assessed as parent compound remaining at 1 ug/ml measured after 30 mins by LC-MS/MS analysis; type: ADME, cell-free; details: at 1 µg/mL, read-out: Stability
# [21] = Stability in mouse plasma assessed as parent compound remaining at 1 ug/ml measured after 45 mins by LC-MS/MS analysis; type: ADME, cell-free; details: at 1 µg/mL, read-out: Stability
# [22] = Stability in mouse plasma assessed as parent compound remaining at 1 ug/ml measured after 60 mins by LC-MS/MS analysis; type: ADME, cell-free; details: at 1 µg/mL, read-out: Stability
# [23] = Stability in mouse plasma assessed as parent compound remaining at 1 ug/ml measured after 120 mins by LC-MS/MS analysis; type: ADME, cell-free; details: at 1 µg/mL, read-out: Stability
# [24] = Stability in mouse plasma assessed as parent compound remaining at 1 ug/ml measured after 240 mins by LC-MS/MS analysis; type: ADME, cell-free; details: at 1 µg/mL, read-out: Stability
# [25] = Stability in mouse plasma assessed as parent compound remaining at 1 ug/ml measured after 1440 mins by LC-MS/MS analysis; type: ADME, cell-free; details: at 1 µg/mL, read-out: Stability
# [26] = Stability in mouse plasma assessed as parent compound remaining at 5 ug/ml measured after 10 mins by LC-MS/MS analysis; type: ADME, cell-free; details: at 5 µg/mL, read-out: Stability
# [27] = Stability in mouse plasma assessed as parent compound remaining at 5 ug/ml measured after 20 mins by LC-MS/MS analysis; type: ADME, cell-free; details: at 5 µg/mL, read-out: Stability
# [28] = Stability in mouse plasma assessed as parent compound remaining at 5 ug/ml measured after 30 mins by LC-MS/MS analysis; type: ADME, cell-free; details: at 5 µg/mL, read-out: Stability
# [29] = Stability in mouse plasma assessed as parent compound remaining at 5 ug/ml measured after 45 mins by LC-MS/MS analysis; type: ADME, cell-free; details: at 5 µg/mL, read-out: Stability
# [30] = Stability in mouse plasma assessed as parent compound remaining at 5 ug/ml measured after 60 mins by LC-MS/MS analysis; type: ADME, cell-free; details: at 5 µg/mL, read-out: Stability
# [31] = Stability in mouse plasma assessed as parent compound remaining at 5 ug/ml measured after 120 mins by LC-MS/MS analysis; type: ADME, cell-free; details: at 5 µg/mL, read-out: Stability
# [32] = Stability in mouse plasma assessed as parent compound remaining at 5 ug/ml measured after 240 mins by LC-MS/MS analysis; type: ADME, cell-free; details: at 5 µg/mL, read-out: Stability
# [33] = Stability in mouse plasma assessed as parent compound remaining at 5 ug/ml measured after 1440 mins by LC-MS/MS analysis; type: ADME, cell-free; details: at 5 µg/mL, read-out: Stability
# [34] = Half life in ICR mouse at 10 mg/kg, ip measured after 5 to 24 hrs post administration by LC-MS/MS analysis; type: ADME, organism-based; details: in vivo, time 5-24 hrs
# [35] = Tmax in ICR mouse at 10 mg/kg, ip measured after 5 to 24 hrs post administration by LC-MS/MS analysis; type: ADME, organism-based; details: in vivo, time 5-24 hrs
# [36] = AUC (0 to infinity) in ICR mouse at 10 mg/kg, ip measured after 5 to 24 hrs post administration by LC-MS/MS analysis; type: ADME, organism-based; parameters: time upper 24 hrs, dose 10 mg/kg, time lower 5 hrs, route ip; details: ICR, in vivo
# [37] = AUC (0 to t) in ICR mouse at 10 mg/kg, ip measured after 5 to 24 hrs post administration by LC-MS/MS analysis; type: ADME, organism-based; parameters: time 5-24 hrs, dose 10 mg/kg, route ip; details: ICR, in vivo
structure (smiles),measurement,setting,value
Cc1cc2c3c(N)nc(N)nc3ccc2n1Cc1nc2ccccc2s1,MIC,Staphylococcus aureus [1],0.5 µg/mL
same,MIC,Staphylococcus aureus [2],0.25 µg/mL
same,MIC,[3],≤ 0.004 µg/mL
same,MIC,Acinetobacter baumannii,4 µg/mL
same,MIC,Enterococcus faecalis,0.5 µg/mL
same,MIC,Escherichia coli,1 µg/mL
same,inhibition,[4],99.1%
same,IC50,MCF7,430 nM
same,IC50,HGC-27,540 nM
same,IC50,HCT-116,1950 nM
same,IC50,HepG2,180 nM
same,Activity,EMT6 [5],Dose-Dependent Effect
same,Activity,[6],Non-Toxic
same,Activity,[7],18.4 g
same,Activity,[8],18.3 g
same,Activity,[9],14.9 g
same,Activity,[10],17.6 g
same,Activity,EMT6 [11],0.44 g
same,Activity,EMT6 [12],0.95 g
same,Activity,EMT6 [13],71%
same,Activity,EMT6 [14],37.7%
same,half-life at 1 µM,[15],1.37 h
same,microsomal CLint at 1 µM,[16],16.9 µL/min/mg
same,CLH,[17],38.3 mL/min/kg
same,"remaining at 10 min, 1 ug/ml",[18],99.6%
same,"remaining at 20 min, 1 ug/ml",[19],99.3%
same,"remaining at 0.5 h, 1 ug/ml",[20],99.1%
same,"remaining at 0.75 h, 1 ug/ml",[21],98.9%
same,"remaining at 1 h, 1 ug/ml",[22],98.5%
same,"remaining at 2 h, 1 ug/ml",[23],98.4%
same,"remaining at 4 h, 1 ug/ml",[24],98.5%
same,"remaining at 24 h, 1 ug/ml",[25],97.3%
same,"remaining at 10 min, 5 ug/ml",[26],99%
same,"remaining at 20 min, 5 ug/ml",[27],98.6%
same,"remaining at 0.5 h, 5 ug/ml",[28],98.3%
same,"remaining at 0.75 h, 5 ug/ml",[29],97.9%
same,"remaining at 1 h, 5 ug/ml",[30],97.8%
same,"remaining at 2 h, 5 ug/ml",[31],97.3%
same,"remaining at 4 h, 5 ug/ml",[32],97.5%
same,"remaining at 24 h, 5 ug/ml",[33],97%
same,half-life,[34],9.81 h
same,Tmax,[35],0.83 h
same,AUC(0-inf),[36],2740 ng·h/mL
same,AUC(0-t),[37],2280 ng·h/mL
